Data as given in ChEMBL document CHEMBL1781890, “Inhibition of Myosin ATPase activity by halogenated pseudilins: a structure-activity study” (J Med Chem, 2011).
pIC50: −log10 of the molar value.

Legend:
[1] = Inhibition of Dictyostelium discoideum myosin 2 motor domain-activated ATPase activity by spectrophotometry based PK/LDH coupled ATPase assay
Unconventional myosin-Va = Unconventional myosin-Va (Gallus gallus, UniProt Q02440); experiment: Inhibition of chicken myosin 5a assessed as ATP hydrolysis
Sequence of Unconventional myosin-Va (Q02440 whole entry): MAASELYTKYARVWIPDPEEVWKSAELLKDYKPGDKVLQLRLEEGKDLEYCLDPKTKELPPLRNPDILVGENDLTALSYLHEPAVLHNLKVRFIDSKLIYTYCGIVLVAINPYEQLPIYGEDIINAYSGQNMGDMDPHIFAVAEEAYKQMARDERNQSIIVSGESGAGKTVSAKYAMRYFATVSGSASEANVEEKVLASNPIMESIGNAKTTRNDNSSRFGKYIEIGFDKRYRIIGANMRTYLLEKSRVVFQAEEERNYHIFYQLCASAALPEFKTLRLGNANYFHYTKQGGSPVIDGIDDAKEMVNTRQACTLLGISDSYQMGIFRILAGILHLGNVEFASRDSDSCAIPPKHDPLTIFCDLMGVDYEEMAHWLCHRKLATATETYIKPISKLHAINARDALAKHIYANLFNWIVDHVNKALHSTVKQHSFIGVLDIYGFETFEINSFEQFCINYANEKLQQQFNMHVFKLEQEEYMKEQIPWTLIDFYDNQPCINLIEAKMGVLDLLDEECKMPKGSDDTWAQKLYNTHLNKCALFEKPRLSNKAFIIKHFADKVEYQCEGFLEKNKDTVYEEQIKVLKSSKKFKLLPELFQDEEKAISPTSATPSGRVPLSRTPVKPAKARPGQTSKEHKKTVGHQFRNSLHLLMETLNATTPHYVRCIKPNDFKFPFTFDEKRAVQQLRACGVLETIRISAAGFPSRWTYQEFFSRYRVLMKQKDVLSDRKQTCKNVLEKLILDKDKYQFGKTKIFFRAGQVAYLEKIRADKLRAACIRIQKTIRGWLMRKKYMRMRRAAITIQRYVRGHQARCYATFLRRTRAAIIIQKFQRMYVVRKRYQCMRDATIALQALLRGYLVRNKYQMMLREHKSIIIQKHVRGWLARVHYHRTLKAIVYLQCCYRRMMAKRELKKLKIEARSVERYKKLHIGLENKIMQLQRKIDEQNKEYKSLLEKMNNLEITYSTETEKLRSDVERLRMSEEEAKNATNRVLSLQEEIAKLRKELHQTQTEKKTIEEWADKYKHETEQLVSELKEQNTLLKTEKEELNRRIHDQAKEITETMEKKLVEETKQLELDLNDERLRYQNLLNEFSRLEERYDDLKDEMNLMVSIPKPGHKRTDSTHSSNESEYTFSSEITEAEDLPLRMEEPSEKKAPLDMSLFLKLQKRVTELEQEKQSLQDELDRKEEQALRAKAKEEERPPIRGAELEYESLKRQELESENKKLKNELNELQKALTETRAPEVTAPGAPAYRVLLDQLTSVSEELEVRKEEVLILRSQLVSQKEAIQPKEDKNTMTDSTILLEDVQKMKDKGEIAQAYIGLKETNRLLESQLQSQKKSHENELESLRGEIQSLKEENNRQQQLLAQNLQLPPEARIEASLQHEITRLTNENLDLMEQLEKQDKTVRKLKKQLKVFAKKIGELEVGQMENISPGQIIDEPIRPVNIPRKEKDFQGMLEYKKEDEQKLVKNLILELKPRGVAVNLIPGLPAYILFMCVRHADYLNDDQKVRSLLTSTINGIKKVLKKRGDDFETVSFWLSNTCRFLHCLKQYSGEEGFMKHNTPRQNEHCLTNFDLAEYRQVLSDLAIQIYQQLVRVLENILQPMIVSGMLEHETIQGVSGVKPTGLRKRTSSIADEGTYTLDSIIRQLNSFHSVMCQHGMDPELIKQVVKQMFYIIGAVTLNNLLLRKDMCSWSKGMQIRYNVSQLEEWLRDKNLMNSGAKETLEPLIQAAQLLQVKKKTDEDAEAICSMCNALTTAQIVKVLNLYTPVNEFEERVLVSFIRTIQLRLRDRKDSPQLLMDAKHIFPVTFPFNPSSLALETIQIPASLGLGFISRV

[2] = Inhibition of Dictyostelium discoideum myosin 1b ATPase activity by spectrophotometric analysis

pIC50 [1]	Compound	pIC50 (Unconventional myosin-Va)	pIC50 [2]
3.74	COc1ccccc1-c1[nH]c(Br)c(Br)c1Br	–	–
4.04	COc1c(Br)cc(Br)cc1-c1[nH]c(Br)c(Br)c1Br	–	–
3.90	Cn1c(Br)c(Br)c(Br)c1-c1cc(Br)cc(Br)c1O	–	–
3.56	COc1c(Cl)cc(Cl)cc1-c1[nH]c(Cl)c(Cl)c1Cl	–	–
< 3.00	Oc1ccccc1-c1ccc[nH]1	–	–
< 3.00	COc1ccccc1-c1ccc[nH]1	–	–

Compound	pIC50 [1]	pIC50 (Unconventional myosin-Va)	pIC50 [2]
Oc1c(Br)cc(Br)cc1-c1[nH]c(Br)c(Br)c1Br [PENTABROMOPSEUDILIN]	4.61	5.92	–
Oc1c(Cl)cc(Cl)cc1-c1[nH]c(Cl)c(Cl)c1Cl [PENTACHLOROPSEUDILIN]	3.90	–	6.00
